Results as given in ChEMBL document CHEMBL1201862, “PubChem BioAssay data set” (2004).
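Five compound concentrations were applied to cells in 96-well plates for 48 hours; endpoints were derived by simple linear interpolation of the resulting dose-response curve. At the GI50, growth is halved.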 Activity calls are given as the source filed them. Cut-off read from the data, not from the text of the source: active = GI50 up to about 1.1 µM and inactive = higher.

Assays:
Test in all cases: inhibition of tumour cell growth, NCI panel, 48 h
786-0 = system: 786-0
A549 = system: A549
ACHN = system: ACHN
CCRF-CEM = system: CCRF-CEM
COLO 205 = system: COLO 205
EKVX = system: EKVX
HCT-116 = system: HCT-116
HL-60 = system: HL-60
HT-29 = system: HT-29
IGROV-1 = system: IGROV-1
LOX IMVI = system: LOX IMVI
MCF7 = system: MCF7
MDA-MB-231 = system: MDA-MB-231
MOLT-4 = system: MOLT-4
NCI-H522 = system: NCI-H522
NCI/ADR-RES = system: NCI/ADR-RES
SN12C = system: SN12C
SW-620 = system: SW-620
UO-31 = system: UO-31
SF-268 = system: SF-268

Measured: GI50

CSc1nc2c(c(=O)[nH]1)N=C(c1ccc(Cl)cc1)CC(c1ccccc1)N2 (configuration not stated)
inactive: 786-0 15.7 µM | A549 13.6 µM | ACHN 15.6 µM | CCRF-CEM 17.1 µM | COLO 205 19.8 µM | EKVX 18.3 µM | HCT-116 21.3 µM | HL-60 16.7 µM | HT-29 17.3 µM | IGROV-1 15.5 µM | LOX IMVI 18.7 µM | MCF7 19.1 µM | MDA-MB-231 16.6 µM | MOLT-4 17.7 µM | NCI-H522 14.5 µM | NCI/ADR-RES 14.5 µM | SN12C 16.4 µM | SW-620 18.8 µM | UO-31 13.9 µM

CCN1CC2=C(N=c3s/c(=C\c4ccc(Cl)cc4)c(=O)n3C2c2ccc(Cl)cc2)/C(=C/c2ccc(Cl)cc2)C1 (configuration not stated)
inactive: 786-0 10.4 µM | A549 > 100 µM | ACHN 58.7 µM | CCRF-CEM 73.3 µM | COLO 205 > 100 µM | EKVX > 100 µM | HCT-116 44.1 µM | HL-60 > 100 µM | HT-29 > 100 µM | IGROV-1 67.3 µM | LOX IMVI > 100 µM | MCF7 > 100 µM | MDA-MB-231 25.6 µM | MOLT-4 64.6 µM | NCI-H522 > 100 µM | NCI/ADR-RES > 100 µM | SF-268 24.9 µM | SW-620 > 100 µM | UO-31 > 100 µM

C/C=C/[C@@]1(OC(=O)c2ccccc2)C[C@@H]2CCCC[C@@H]21
inactive: 786-0 17.7 µM | A549 18.5 µM | ACHN 17.7 µM | CCRF-CEM 18.3 µM | EKVX 16.7 µM | HCT-116 16 µM | HL-60 14 µM | HT-29 16.3 µM | IGROV-1 17 µM | LOX IMVI 21.9 µM | MCF7 18.9 µM | MDA-MB-231 20.6 µM | MOLT-4 17.9 µM | NCI-H522 15.7 µM | NCI/ADR-RES 20.5 µM | SF-268 17.1 µM | SN12C 17.5 µM | SW-620 23 µM | UO-31 11 µM

COC/C=C\[C@]1(O)CCCC[C@@H]1CC(OC)OC
inactive: 786-0 > 100 µM | A549 > 100 µM | ACHN > 100 µM | CCRF-CEM 37.1 µM | COLO 205 > 100 µM | EKVX > 100 µM | HL-60 20.4 µM | HT-29 > 100 µM | IGROV-1 > 100 µM | LOX IMVI > 100 µM | MCF7 > 100 µM | MDA-MB-231 > 100 µM | MOLT-4 23.4 µM | NCI-H522 67.5 µM | NCI/ADR-RES > 100 µM | SF-268 > 100 µM | SW-620 > 100 µM | UO-31 > 100 µM

CC1=NN(c2cccc(Cl)c2)C2(SCC(=O)N2c2nc3ccccc3s2)/C1=C\c1ccc(N(C)C)cc1 (configuration not stated)
inactive: 786-0 43.8 µM | ACHN 26.1 µM | CCRF-CEM 66.1 µM | EKVX > 100 µM | HCT-116 > 100 µM | HL-60 > 100 µM | HT-29 > 100 µM | IGROV-1 54.7 µM | LOX IMVI > 100 µM | MCF7 38.7 µM | MDA-MB-231 40.7 µM | MOLT-4 48.5 µM | NCI-H522 65.8 µM | NCI/ADR-RES > 100 µM | SF-268 38.7 µM | SW-620 > 100 µM | UO-31 > 100 µM

Cc1ccc2[nH]c3c(c2c1)CCC/C3=N/N=C(N)N
inactive: 786-0 2.07 µM | A549 1.89 µM | ACHN 1.89 µM | CCRF-CEM 2.29 µM | COLO 205 1.62 µM | EKVX 1.92 µM | HCT-116 2.79 µM | HL-60 9.4 µM | HT-29 1.64 µM | IGROV-1 1.62 µM | LOX IMVI 1.84 µM | MCF7 1.44 µM | MDA-MB-231 1.39 µM | MOLT-4 2.09 µM | NCI-H522 1.87 µM | NCI/ADR-RES 1.66 µM | SN12C 1.58 µM | SW-620 3.2 µM | UO-31 1.95 µM

Cc1ccc(S(=O)(=O)N/N=C2\C3CC4CC(C3)C2C4)cc1 (configuration not stated)
inactive: 786-0 > 100 µM | A549 > 100 µM | CCRF-CEM > 100 µM | COLO 205 > 100 µM | HCT-116 > 10 µM | HL-60 > 100 µM | HT-29 > 100 µM | IGROV-1 > 100 µM | LOX IMVI > 100 µM | MCF7 > 100 µM | MDA-MB-231 > 100 µM | MOLT-4 > 100 µM | NCI-H522 > 100 µM | NCI/ADR-RES > 100 µM | SN12C > 100 µM | SW-620 > 100 µM | UO-31 > 100 µM

CC(C)=CCc1c2c(c3occ(-c4ccc(O)cc4)c(=O)c3c1O)CC(C(C)(C)O)O2 (configuration not stated) [SENEGALENSIN]
inactive: 786-0 16.8 µM | A549 13 µM | ACHN 14.8 µM | CCRF-CEM 17.5 µM | COLO 205 14.6 µM | HCT-116 16.7 µM | HL-60 12.4 µM | HT-29 12 µM | IGROV-1 2.8 µM | LOX IMVI 14.9 µM | MCF7 12.8 µM | MDA-MB-231 14.4 µM | MOLT-4 11.7 µM | NCI-H522 15.8 µM | NCI/ADR-RES 15.7 µM | SF-268 26.5 µM | SN12C 19.6 µM | SW-620 21.7 µM | UO-31 10 µM
